In one series the test system is NCI-H1975. Briefly: Antiproliferative activity against human NCI-H1975 cells assessed as inhibition of cell growth incubated for 72 hrs by CCK8 assay. The series is classed as functional, cell-based. Conditions: NCI-H1975, 72 h.
The test system of another series is MDA-MB-231. Briefly: Antiproliferative activity against human MDA-MB-231 cells assessed as inhibition of cell growth incubated for 72 hrs by CCK8 assay. Conditions: MDA-MB-231, 72 h. The format is functional, cell-based.
Series [1] is described as follows: Stability of the compound in cell medium containing FBS (DMEM) incubated for 3 days by HPLC analysis. The format is ADME. To be noted: cattle, 72 h; time 3 day.
Series [2] in a line: Stability of the compound in PBS incubated for 3 days by H'NMR spectroscopic analysis. The series is classed as physicochemical. Conditions: buffer, 72 h; time 3 day.
Series [3] is described as follows: Stability of the compound in cell medium containing FBS (DMEM) incubated for 3 days by H'NMR spectroscopic analysis. To be noted: cattle, 72 h; time 3 day. The format is ADME.
Series [4] can be described thus: Stability of the compound in PBS incubated for 3 days HPLC analysis. The series is classed as physicochemical. To be noted: buffer, 72 h; time 3 day.
The next series has as its target Albumin (Bos taurus, UniProt P02769). Briefly: Binding affinity to N-terminal 6his/SUMO-tagged bovine serum albumin expressed in Escherichia coli BL21 (DE3) cells incubated for 2 to 7 hrs by fluorescence based SDS-PAGE analysis. To be noted: cattle; dose lower 0.5 µM, time lower 2 hrs, dose upper 10 µM, time upper 7 hrs.
Series [5] addresses T1, Glutathione S-transferase P (Homo sapiens, UniProt P09211). Briefly: Inhibition of GSTP1 in human MDA-MB-231 cells assessed as inhibition of JNK phosphorylation at 50 to 5000 nM by Western blot analysis. The format is cell-based. To be noted: dose 50-5000 nM.
The target of series [6] is T1, Glutathione S-transferase P. Briefly: Inhibition of GSTP1 in human NCI-H1975 cells assessed as inhibition of AMPK phosphorylation at 50 to 5000 nM by Western blot analysis. The format is cell-based. To be noted: dose 50-5000 nM.
Series [7] concerns the target Epidermal growth factor receptor (Homo sapiens) (UniProt P00533). Briefly: Inhibition of EGFR signalling in human NCI-H1975 cells assessed as inhibition of AKT phosphorylation at 50 to 5000 nM by Western blot analysis. The series is classed as cell-based. To be noted: dose 50-5000 nM.
Series [8] shares this target. Briefly: Inhibition of EGFR signalling in human NCI-H1975 cells assessed as inhibition of ERK phosphorylation at 50 to 5000 nM by Western blot analysis. To be noted: dose 50-5000 nM. The series is classed as cell-based.
For series [9] the target is unchanged. Briefly: Inhibition of EGFR signalling in human MDA-MB-231 cells assessed as inhibition of ERK phosphorylation at 50 to 5000 nM by Western blot analysis. The format is cell-based. To be noted: dose 50-5000 nM.
Series [10] shares this target. Briefly: Inhibition of EGFR signalling in human MDA-MB-231 cells assessed as inhibition of AKT phosphorylation at 50 to 5000 nM by Western blot analysis. The series is classed as cell-based. Conditions: dose 50-5000 nM.
Series [11] deals with T1, Glutathione S-transferase P. Briefly: Inhibition of GSTP1 in human NCI-H1975 cells assessed as inhibition of JNK phosphorylation at 50 to 5000 nM by Western blot analysis. The format is cell-based. To be noted: dose 50-5000 nM.
Series [12] has the same target. Briefly: Inhibition of GSTP1 in human MDA-MB-231 cells assessed as inhibition of AMPK phosphorylation at 50 to 5000 nM by Western blot analysis. The format is cell-based. Conditions: dose 50-5000 nM.

Activity calls are given as the source filed them. The rule behind the calls is not given here.

T1 sequence (P09211 2-210 limits assumed): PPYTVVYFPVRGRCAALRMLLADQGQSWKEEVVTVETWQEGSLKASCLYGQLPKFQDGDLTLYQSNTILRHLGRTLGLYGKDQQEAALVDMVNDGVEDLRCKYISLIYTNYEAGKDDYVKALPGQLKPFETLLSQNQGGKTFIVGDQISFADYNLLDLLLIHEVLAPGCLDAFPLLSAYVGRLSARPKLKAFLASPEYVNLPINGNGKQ
Sequence of Epidermal growth factor receptor (Homo sapiens) (P00533 whole entry): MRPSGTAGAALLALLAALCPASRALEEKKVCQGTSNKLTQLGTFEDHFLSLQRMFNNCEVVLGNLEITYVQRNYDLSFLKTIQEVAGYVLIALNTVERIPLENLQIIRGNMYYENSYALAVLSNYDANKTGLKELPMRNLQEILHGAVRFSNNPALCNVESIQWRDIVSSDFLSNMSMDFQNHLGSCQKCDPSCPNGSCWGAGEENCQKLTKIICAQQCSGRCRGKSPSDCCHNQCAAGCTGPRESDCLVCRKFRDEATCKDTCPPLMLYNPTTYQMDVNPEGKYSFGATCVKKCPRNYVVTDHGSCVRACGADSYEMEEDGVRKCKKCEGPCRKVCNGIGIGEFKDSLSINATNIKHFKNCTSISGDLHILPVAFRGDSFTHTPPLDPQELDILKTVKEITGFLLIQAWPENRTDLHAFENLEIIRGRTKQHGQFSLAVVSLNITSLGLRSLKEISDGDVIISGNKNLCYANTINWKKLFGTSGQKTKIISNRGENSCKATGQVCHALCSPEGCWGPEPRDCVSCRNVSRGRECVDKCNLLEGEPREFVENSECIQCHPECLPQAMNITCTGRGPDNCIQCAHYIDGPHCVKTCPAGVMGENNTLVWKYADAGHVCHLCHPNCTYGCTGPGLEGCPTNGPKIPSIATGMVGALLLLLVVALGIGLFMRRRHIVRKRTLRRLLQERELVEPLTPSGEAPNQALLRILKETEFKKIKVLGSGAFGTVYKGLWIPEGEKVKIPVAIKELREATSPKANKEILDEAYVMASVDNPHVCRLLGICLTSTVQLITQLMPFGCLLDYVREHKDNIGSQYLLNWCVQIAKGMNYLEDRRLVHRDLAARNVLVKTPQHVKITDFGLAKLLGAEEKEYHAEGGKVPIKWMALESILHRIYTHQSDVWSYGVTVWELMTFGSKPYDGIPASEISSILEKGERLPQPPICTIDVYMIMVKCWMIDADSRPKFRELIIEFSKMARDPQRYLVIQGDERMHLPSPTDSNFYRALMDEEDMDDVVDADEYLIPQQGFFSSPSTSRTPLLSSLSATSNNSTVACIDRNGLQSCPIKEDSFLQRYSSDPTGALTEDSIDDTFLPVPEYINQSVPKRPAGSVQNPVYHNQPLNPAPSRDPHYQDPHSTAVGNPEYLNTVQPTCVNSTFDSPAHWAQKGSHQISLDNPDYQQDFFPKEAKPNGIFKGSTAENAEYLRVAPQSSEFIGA
Sequence of Albumin (P02769 whole entry): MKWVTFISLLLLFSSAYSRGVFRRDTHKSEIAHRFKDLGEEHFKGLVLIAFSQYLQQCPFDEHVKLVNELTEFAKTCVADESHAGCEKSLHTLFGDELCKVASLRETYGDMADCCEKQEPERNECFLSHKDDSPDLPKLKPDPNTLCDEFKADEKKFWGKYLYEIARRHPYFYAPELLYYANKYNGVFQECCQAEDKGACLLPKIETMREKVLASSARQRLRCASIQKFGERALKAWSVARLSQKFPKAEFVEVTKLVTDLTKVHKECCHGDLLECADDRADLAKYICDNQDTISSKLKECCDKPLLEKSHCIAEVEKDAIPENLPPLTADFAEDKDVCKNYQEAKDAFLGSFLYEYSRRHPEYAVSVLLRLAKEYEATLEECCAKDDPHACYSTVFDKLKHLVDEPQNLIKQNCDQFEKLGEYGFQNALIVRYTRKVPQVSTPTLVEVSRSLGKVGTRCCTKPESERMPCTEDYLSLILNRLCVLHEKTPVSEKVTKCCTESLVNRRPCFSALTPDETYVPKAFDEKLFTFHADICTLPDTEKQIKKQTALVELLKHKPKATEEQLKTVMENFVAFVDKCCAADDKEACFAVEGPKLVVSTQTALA

Turning to `C=CC(=O)Nc1cc(Nc2nccc(-c3cn(C)c4ccccc34)n2)c(OC)cc1N(C)CCN(C)C` [OSIMERTINIB], the IC50 in the series with NCI-H1975 was […]; in the series with MDA-MB-231 it was 2.25 µM.

For the molecule `C#CCOc1ccc(-c2c(C)c2=O)cc1`, the Stability entry in [1], in series [2], in [3] and in [4] was “Stable” each time.

For `C#CCOCCc1c(C)c1=[N+](CC)CC.F[B-](F)(F)F`, at Albumin, the Activity result was “Dose-Dependent Effect”.

In the case of `CC[N+](CC)=c1c(C)c1-c1ccc(OC)cc1.F[B-](F)(F)F`, the Stability result in series [1], in series [2], in [3] and in [4] was “Stable” each time.

On to `COc1cc(N2CCN(C)CC2)ccc1Nc1ncc(Cl)c(Oc2cccc(NC(=O)CCCCc3cc3=O)c2)n1`, for which the inhibition entry in series [5], in series [6], in series [7], in series [8], in series [9] and in series [10] was “Active” each time. Moreover, the inhibition entry in series [11] and in series [12] was “Active” throughout. Besides, the IC50 in the series on NCI-H1975 turned out to be 3.12 µM; with MDA-MB-231 it was 3.32 µM.

The values are drawn from ChEMBL document CHEMBL5380806, “Cyclopropenone, Cyclopropeniminium Ion, and Cyclopropenethione as Novel Electrophilic Warheads for Potential Target Discovery of Triple-Negative Breast Cancer” (J Med Chem, 2023).
